From article PMC3655044, “Construction of a chimeric thermoacidophilic beta-endoglucanase” (BMC Biochemistry, 2013)

Test system: T1, CelA-SSO1949-CelA
T1 construct: 70 aa CelA + 163 aa SSO1949 + 29 aa CelA, 262 aa, ~29 kDa, no purification tag
Test: FRET fluorescence assay, initial rates
Format: biochemical, Thermotoga maritima; Saccharolobus solfataricus
Conditions: 80°C; pH 3; 0.1 M sodium phosphate
Source text: FRET fluorescence assay, initial rates on CelA-SSO1949-CelA

Km: 1.74 ± 0.15 µM
Compound: CN(C)c1ccc(/N=N/c2ccc(NC(=S)N[C@H]3[C@H](O)[C@@H](O)[C@H](O[C@H]4[C@H](O)[C@@H](O)[C@H](O[C@H]5[C@H](O)[C@@H](O)[C@H](O[C@H]6[C@H](O)[C@@H](O)[C@H](O[C@H]7[C@H](O)[C@@H](O)[C@H](O[C@H]8[C@H](O)[C@@H](O)[C@H](SCC(=O)NCCNc9cccc%10c(S(=O)(=O)O)cccc9%10)O[C@@H]8CO)O[C@@H]7CO)O[C@@H]6CO)O[C@@H]5CO)O[C@@H]4CO)O[C@@H]3CO)cc2)cc1 [fluorescent cellohexaoside, sodium N-{2-N-[(S-(4-deoxy-4-dimethylamino-phenylazophenylthioureido-β-D-glucopyranosyl)-(1→4)-β-D-glucopyranosyl-(1→4)-β-D-glucopyranosyl-(1→4)-β-D-glucopyranosyl-(1→4)-β-D-glucopyranosyl-(1→4)-β-D-glucopyranosyl)-2-thioacetyl]aminoethyl}-1-naphthylamine-5-sulphonate]
